In data set [1] the test system is T-47D breast cancer cells. The experiment in a line: MTS cell viability assay, T-47D. The data set is classed as cell-based, human. The gist of the method:
(§1)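 Increasing compound concentrations are applied to subconfluent (~50%) monolayers in MEM with 10% FBS and HEPES (pH 7.4) for 1 h, with 2-day washout, or for 48 h. MTS conversion over 4 h at 37 °C is read at 490 nm and normalised to control.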
Background: Formazan colour is commonly taken as a measure of viable cells.

Data set [2] concerns PC-3 prostate cancer cells. The experiment in a line: MTS cell viability assay, PC-3. The data set is classed as cell-based, human. The conditions noted are these: read-out: EC50 (effective concentration that resulted in 50% cell viability). The essentials: (§2)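 SK-BR-3 cells grown in MEM, DU145 and PC-3 cells in RPMI-1640, each with 10% FBS and 25 mM HEPES pH 7.4, plated 2 days to ~50% confluence. Exposure to increasing Pt complex or cisplatin/carboplatin concentrations for 1 h (washed, then 2 days recovery) or 48 h continuous. MTS absorbance at 490 nm after 4 h; viability as percent of control.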

For data set [3], the system named is MDA-MB-231 breast cancer cells. The experiment in a line: MTS cell viability assay, MDA-MB-231. The data set is classed as cell-based, human. The conditions noted are these: read-out: EC50 (effective concentration that resulted in 50% cell viability). The essentials:
as §1

In data set [4] the test system is SK-BR-3 breast cancer cells. The data set can be described thus: MTS cell viability assay, SK-BR-3. The class given is cell-based, human. Conditions: read-out: EC50 (effective concentration that resulted in 50% cell viability). The gist of the method: as §2
Data set [5] in a line: Solubility in water and culture medium. The data set is classed as physicochemical. The conditions noted are these: water. As for the experimental part: It should be noted that while the solubility of the Pt(IV) complexes in organic solvents were increased compared to their Pt(II) precursors, they were still poorly soluble in water. Thus, Pt(IV)-1C to Pt(IV)-3C were limited to a highest concentration of 100 μM. […] Testing of Pt(IV)4C therefore was limited to 25 μM.

Data set [6] in a line: Solubility in DMSO and common organic solvents. The data set is classed as physicochemical. How it is done:
Coordination of the axial ligands to the Pt center improved the solubility of the complexes in common organic solvents. DMSO solutions of the Pt(IV) complexes with concentrations of 10 mM or higher were obtainable, whereas the Pt(II) can only be made at the highest concentration of 5 mM.

The test system of data set [7] is ZR-75-1 breast cancer cells. The data set can be described thus: MTS cell viability assay, ZR-75-1. The class given is cell-based, human. Conditions: read-out: EC50 (effective concentration that resulted in 50% cell viability). The essentials: as §1
Another data set concerns H520 lung cancer cells. The experiment in a line: MTS cell viability assay, H520. The class given is cell-based, human. Conditions: read-out: EC50 (effective concentration that resulted in 50% cell viability). The gist of the method:
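Two exposure schemes were used: a 1 h treatment followed by washing and 2 days' regrowth, and a 48 h continuous treatment. Viability was then measured colorimetrically with MTS reagent (4 h, 490 nm) relative to solvent controls.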

For data set [8], the system named is HCC38 breast cancer cells. The data set can be described thus: MTS cell viability assay, HCC38. The class given is cell-based, human. The conditions noted are these: read-out: EC50 (effective concentration that resulted in 50% cell viability). The gist of the method:
as §1

The test system of data set [9] is MCF-7 breast cancer cells. The experiment in a line: MTS cell viability assay, MCF-7. The class given is cell-based, human. Conditions: read-out: EC50 (effective concentration that resulted in 50% cell viability). The gist of the method:
as §1

Data set [10] relates to DU145 prostate cancer cells. The class given is cell-based, human. The conditions noted are these: read-out: EC50 (effective concentration that resulted in 50% cell viability). The gist of the method: as §2
A short description of data set [11]: Maximum tolerated dose study in a mouse model. The class given is in vivo. The conditions noted are these: intraperitoneal administration, 12.5 mg/kg/day for three days. How it is done:
As described herein, the platinum complexes provided herein can be used to reduce the viability of cancer cells. […] One of these compounds, Pt(II)-4C, was tested in vivo in a mouse model to determine the maximum tolerated dose. […] Here, a series of Pt(IV) derivatives having improved solubility in DMSO and, in some instances, increased activity compared to their Pt(II) counterparts is described.

The next data set relates to A549 lung cancer cells. The data set can be described thus: MTS cell viability assay, A549. The data set is classed as cell-based, human. The conditions noted are these: read-out: EC50 (effective concentration that resulted in 50% cell viability). The gist of the method: as §1

Each structure is given as a SMILES string. Like-named read-outs stand apart in the source and are kept apart here.

Take `CCCCOc1ccnc(-c2cc(OCCCC)ccn2)c1.[Cl][Pt][Cl]` [Pt(II)-4C]: the EC50 is 12 ± 7 µM in [1] (1 h treatment, Table 2, read-out: EC50 (effective concentration that resulted in 50% cell viability)); 2.3 ± 0.4 µM in data set [1] (48 h treatment, Table 4, read-out: EC50 (effective concentration that resulted in 50% cell viability)); 11 ± 2 µM in [2] (PC-3, 1 h treatment, Table 2); 7.4 ± 0.5 µM in data set [2] (PC-3, 48 h treatment, Table 4); 4 ± 3 µM in data set [3] (MDA-MB-231, 1 h treatment, Table 2); 2.4 ± 0.6 µM in data set [3] (MDA-MB-231, 48 h treatment, Table 4). In addition, the EC50 was found to be 5 ± 4 µM in [4] (SK-BR-3, 1 h treatment, Table 2); 2.1 ± 0.2 µM in data set [4] (SK-BR-3, 48 h treatment, Table 4); 21 ± 2 µM in data set [7] (ZR-75-1, 1 h treatment, Table 2); 6 ± 0.9 µM in data set [7] (ZR-75-1, 48 h treatment, Table 4); 20 ± 1 µM in the data set on H520 lung cancer cells (H520, 1 h treatment, Table 2); 14 ± 6 µM with H520 lung cancer cells (H520, 48 h treatment, Table 4). For the same compound, the EC50 is 12 ± 6 µM in data set [8] (HCC38, 1 h treatment, Table 2); 7.3 ± 3 µM in data set [8] (HCC38, 48 h treatment, Table 4); 22 ± 2 µM in data set [9] (MCF-7, 1 h treatment, Table 2); 13 ± 1 µM in data set [9] (MCF-7, 48 h treatment, Table 4); 12 ± 8 µM in [10] (DU145, 1 h treatment, Table 2); 5 ± 2 µM in [10] (DU145, 48 h treatment, Table 4). Also, the EC50 stood at 17 ± 1 µM in the data set on A549 lung cancer cells (A549, 1 h treatment, Table 2) and 15.4 ± 0.5 µM with A549 lung cancer cells (A549, 48 h treatment, Table 4). For the same compound, the “solubility in water (in words)” value in data set [5] is reported as “poor solubility in water”. Further, the “solubility in DMSO and other common organic solvents (in words)” value in data set [6] was “only moderate solubility in common organic solvents”. For the same compound, the “survival of the animals” value in data set [11] is “survived for seven days”.

Source of the values: patent US10316050B2, “PT (IV) complexes containing 4,4′-disubstituted-2,2′-bipyridyl and their use in cancer therapy” (THE BOARD OF REGENTS OF THE NEVADA SYSTEM OF HIGHER …, priority 2014, dated 2019).
